Experimental data: ChEMBL document CHEMBL1131892, “Synthesis and biological activities of NB-506 analogues: Effects of the positions of two hydroxyl groups at the indole rings” (Bioorg Med Chem Lett, 1999)

Tests used:
DLD-1 = test: In vitro cytotoxicity against DLD-1 (human colon cancer) cells.; format: functional, cell-based
MKN-45 = test: In vitro cytotoxicity against MKN-45 (human stomach cancer) cells.; format: functional, cell-based
P388 [1] = test: In vitro cytotoxicity against p388 (murine leukemia) cells.; format: functional, cell-based; conditions: Mus musculus
DNA topoisomerase 1 = biological target: T1, DNA topoisomerase 1 (Homo sapiens, UniProt P11387); test: In vitro inhibition of Topoisomerase I-mediated DNA cleavage using supercoiled pBR322 plasmid DNA.
T1 sequence (P11387 whole entry): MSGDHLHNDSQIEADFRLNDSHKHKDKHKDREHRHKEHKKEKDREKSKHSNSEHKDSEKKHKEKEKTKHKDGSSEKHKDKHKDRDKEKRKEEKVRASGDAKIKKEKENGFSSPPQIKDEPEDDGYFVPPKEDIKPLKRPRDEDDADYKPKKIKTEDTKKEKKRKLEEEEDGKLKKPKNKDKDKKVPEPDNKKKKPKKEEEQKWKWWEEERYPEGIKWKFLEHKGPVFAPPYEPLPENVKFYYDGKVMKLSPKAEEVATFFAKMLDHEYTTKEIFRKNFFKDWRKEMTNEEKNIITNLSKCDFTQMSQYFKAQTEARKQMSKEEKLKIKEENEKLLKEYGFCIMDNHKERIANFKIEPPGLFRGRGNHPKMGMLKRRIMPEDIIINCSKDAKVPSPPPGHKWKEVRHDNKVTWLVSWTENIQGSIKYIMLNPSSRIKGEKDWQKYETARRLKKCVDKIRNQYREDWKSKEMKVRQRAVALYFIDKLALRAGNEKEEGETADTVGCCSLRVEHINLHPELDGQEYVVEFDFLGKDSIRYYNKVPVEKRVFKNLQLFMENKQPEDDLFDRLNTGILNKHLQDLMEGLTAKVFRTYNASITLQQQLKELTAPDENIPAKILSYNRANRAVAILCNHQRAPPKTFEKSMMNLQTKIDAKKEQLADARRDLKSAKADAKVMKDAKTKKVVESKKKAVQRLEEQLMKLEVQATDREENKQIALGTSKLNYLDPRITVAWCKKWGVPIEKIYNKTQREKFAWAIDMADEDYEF

P388 [2] = test: Inhibition of protein-DNA complex in P388 (murine leukemia) cells.; format: functional, Mus musculus
[3] = Compound was tested for anticancer effect on cancer cells implanted subcutaneously into flanks of nude mice and safety margin was determined (LD10/GID75); format: functional, Cancer cell lines
Mus musculus = test: Tested for anticancer effect on MKN-45 human stomach cancer cells implanted subcutaneously into flanks of nude mice.; format: functional

| SMILES | IC50 (DLD-1) [nM] | IC50 (MKN-45) [nM] | IC50 (P388 [1]) [nM] | EC50 (DNA topoisomerase 1) [nM] | EC200 (P388 [2]) [µM] | Ratio [3] | GID75 (Mus musculus) [mg m**-2] | LD10 (Mus musculus) [mg m**-2] |
| --- | --- | --- | --- | --- | --- | --- | --- | --- |
| O=C1c2c(c3c4cc(O)ccc4n(C4OC(CO)C(O)C(O)C4O)c3c3[nH]c4ccccc4c23)C(=O)N1NC(CO)CO (stereo not given) | > 30000 | 4200 | 47 | 1900 | 4.5 | – | – | – |
| O=C1c2c(c3c4c(O)cccc4n(C4OC(CO)C(O)C(O)C4O)c3c3[nH]c4ccccc4c23)C(=O)N1NC(CO)CO (stereo not given) | > 30000 | 7100 | 910 | 490 | >10 | – | – | – |
| O=C1c2c(c3c4ccc(O)cc4n(C4OC(CO)C(O)C(O)C4O)c3c3[nH]c4cc(O)ccc4c23)C(=O)N1NC(CO)CO (stereo not given) | 120 | 4.8 | 1.5 | 51 | 0.1 | >36 | 45 | >1600 |
| O=C1c2c(c3c4ccc(O)cc4n(C4OC(CO)C(O)C(O)C4O)c3c3[nH]c4c(O)cc(O)cc4c23)C(=O)N1NC(CO)CO (stereo not given) | > 30000 | > 30000 | 15000 | 90 | >10 | – | – | – |
| O=C1c2c(c3c4cc(O)ccc4n(C4OC(CO)C(O)C(O)C4O)c3c3[nH]c4c(O)cccc4c23)C(=O)N1NC(CO)CO (stereo not given) | 5100 | 300 | 31 | 130 | 3 | 0.8 | 2200 | 1800 |
| O=C1c2c(c3c4cccc(O)c4n(C4OC(CO)C(O)C(O)C4O)c3c3[nH]c4c(O)cccc4c23)C(=O)N1NC(CO)CO (stereo not given) | 520 | – | – | – | 0.45 | 5 | 78 | 390 |
| O=C1c2c(c3c4ccccc4n(C4OC(CO)C(O)C(O)C4O)c3c3[nH]c4cccc(O)c4c23)C(=O)N1NC(CO)CO (stereo not given) | > 30000 | 2100 | 700 | 570 | >10 | – | – | – |
| O=C1c2c(c3c4ccccc4n(C4OC(CO)C(O)C(O)C4O)c3c3[nH]c4ccc(O)cc4c23)C(=O)N1NC(CO)CO (stereo not given) | 5500 | 720 | 130 | 1100 | 2 | – | – | – |
| O=C1c2c(c3c4ccc(O)cc4n(C4OC(CO)C(O)C(O)C4O)c3c3[nH]c4ccccc4c23)C(=O)N1NC(CO)CO (stereo not given) | 1000 | 25 | 3.1 | 230 | 0.4 | 1.3 | 800 | 1000 |
| O=C1c2c(c3c4cccc(O)c4n(C4OC(CO)C(O)C(O)C4O)c3c3[nH]c4cc(O)ccc4c23)C(=O)N1NC(CO)CO (stereo not given) | 89 | 87 | 5.4 | 160 | 0.4 | 1.7 | 220 | 370 |
| O=C1c2c(c3c4cccc(O)c4n(C4OC(CO)C(O)C(O)C4O)c3c3[nH]c4ccc(O)cc4c23)C(=O)N1NC(CO)CO (stereo not given) | 220 | 250 | 32 | 510 | 0.55 | 0.8 | 2500 | 1900 |
| O=C1c2c(c3c4ccc(O)cc4n(C4OC(CO)C(O)C(O)C4O)c3c3[nH]c4ccc(O)cc4c23)C(=O)N1NC(CO)CO (stereo not given) | 79 | 56 | 5.2 | 37 | 0.35 | 3.4 | 290 | 1000 |
| O=C1c2c(c3c4cc(O)ccc4n(C4OC(CO)C(O)C(O)C4O)c3c3[nH]c4ccc(O)cc4c23)C(=O)N1NC(CO)CO (stereo not given) | 11000 | 250 | 6.8 | 210 | 0.6 | 1.3 | 300 | 380 |
| O=C1c2c(c3c4ccc(O)cc4n(C4OC(CO)C(O)C(O)C4O)c3c3[nH]c4c(O)cccc4c23)C(=O)N1NC(CO)CO (stereo not given) | 200 | 65 | 10 | 55 | 0.8 | 1.1 | 320 | 350 |
| O=C1c2c(c3c4ccccc4n(C4OC(CO)C(O)C(O)C4O)c3c3[nH]c4c(O)cccc4c23)C(=O)N1NC(CO)CO (stereo not given) | 10000 | 1600 | 140 | 210 | >10 | – | – | – |
| O=C1c2c(c3c4ccccc4n(C4OC(CO)C(O)C(O)C4O)c3c3[nH]c4cc(O)ccc4c23)C(=O)N1NC(CO)CO (stereo not given) | 2000 | 110 | 13 | 650 | 1.2 | 3.3 | 820 | 2700 |
| O=C1c2c(c3c4cc(O)cc(O)c4n(C4OC(CO)C(O)C(O)C4O)c3c3[nH]c4c(O)cc(O)cc4c23)C(=O)N1NC(CO)CO (stereo not given) | > 30000 | > 30000 | > 30000 | 350 | 5.5 | – | – | – |
| O=C1c2c(c3c4cccc(O)c4n(C4OC(CO)C(O)C(O)C4O)c3c3[nH]c4ccccc4c23)C(=O)N1NC(CO)CO (stereo not given) | 2600 | 640 | 22 | 650 | 2 | – | – | – |
| O=C1c2c(c3c4cc(O)ccc4n(C4OC(CO)C(O)C(O)C4O)c3c3[nH]c4cc(O)ccc4c23)C(=O)N1NC(CO)CO (stereo not given) | 340 | 120 | 3.5 | 55 | 0.65 | 1.4 | 710 | 1000 |
